Patent US8906925B2, “Pyrido[4,3-B]indoles containing rigid moieties” (Medivation Technologies, Inc., priority 2008, dated 2014)
Read-outs that look alike come from different tables or passages of the source.

Columns and labels:
histamine receptor H1 = histamine receptor H1 (Homo sapiens, UniProt P35367); test: Histamine H1 radioligand binding ([3H]Pyrilamine); conditions: read-out: Histamine Binding (1 μM) H1, percent inhibition of specific binding, 1 μM
Description: To evaluate in radioligand binding assays the activity of compounds of the invention, human recombinant histamine H1 receptor expressed in Chinese hamster ovary (CHO) cells (De Backer, M. D. et al., Biochem. Biophys. Res. Comm. 197(3):1601, 1993) in a modified Tris-HCl buffer (50 mM Tris-HCl, pH 7.4, 2 mM MgCl2, 100 mM NaCl, 250 mM Sucrose) was used. Compounds of the invention were incubated with 1.2 nM [^3H]Pyrilamine for 180 min. at 25° C. Non-specific binding was estimated in the presence of 1 μM pyrilamine. Receptor proteins were filtered and washed, the filters were then counted to determine [^3H]Pyrilamine specifically bound. Compounds were screened at 1 μM or lower, using 1% DMSO as vehicle. Biochemical assay results are presented as the percent inhibition of specific binding in Table 8.

[1] = target: human dopamine D2L receptor (Homo sapiens, UniProt P14416); test: Dopamine D2L radioligand binding ([3H]Spiperone); conditions: compound at 1 μM
Sequence of human dopamine D2L receptor (P14416 whole entry): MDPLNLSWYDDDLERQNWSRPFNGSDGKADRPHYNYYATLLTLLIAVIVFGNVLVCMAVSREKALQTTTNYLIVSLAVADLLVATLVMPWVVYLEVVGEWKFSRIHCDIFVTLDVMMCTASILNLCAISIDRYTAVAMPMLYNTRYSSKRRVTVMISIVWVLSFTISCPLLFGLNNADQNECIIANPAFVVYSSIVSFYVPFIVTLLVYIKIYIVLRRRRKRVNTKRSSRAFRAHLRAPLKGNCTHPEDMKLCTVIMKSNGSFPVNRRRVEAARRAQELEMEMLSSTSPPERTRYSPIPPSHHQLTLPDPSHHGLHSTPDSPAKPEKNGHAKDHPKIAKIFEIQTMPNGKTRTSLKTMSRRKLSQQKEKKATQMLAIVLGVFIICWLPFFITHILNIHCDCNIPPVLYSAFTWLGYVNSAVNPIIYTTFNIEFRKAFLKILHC
Excerpt: Non-specific binding was estimated in the presence of […] Haloperidol. Receptor proteins were filtered and washed, the filters were then counted to determine [^3H]Spiperone specifically bound. […] Biochemical assay results are presented as the percent inhibition of specific binding in Table 9.

[2] = […] [3H]Spiperone, read-out: Inhibition of ligand binding, Dopamine D2L (percent inhibition of specific binding)
[3] = percent inhibition of specific binding, read-out: Inhibition of ligand binding, Dopamine D2L

Sequence of histamine receptor H1 (P35367 whole entry): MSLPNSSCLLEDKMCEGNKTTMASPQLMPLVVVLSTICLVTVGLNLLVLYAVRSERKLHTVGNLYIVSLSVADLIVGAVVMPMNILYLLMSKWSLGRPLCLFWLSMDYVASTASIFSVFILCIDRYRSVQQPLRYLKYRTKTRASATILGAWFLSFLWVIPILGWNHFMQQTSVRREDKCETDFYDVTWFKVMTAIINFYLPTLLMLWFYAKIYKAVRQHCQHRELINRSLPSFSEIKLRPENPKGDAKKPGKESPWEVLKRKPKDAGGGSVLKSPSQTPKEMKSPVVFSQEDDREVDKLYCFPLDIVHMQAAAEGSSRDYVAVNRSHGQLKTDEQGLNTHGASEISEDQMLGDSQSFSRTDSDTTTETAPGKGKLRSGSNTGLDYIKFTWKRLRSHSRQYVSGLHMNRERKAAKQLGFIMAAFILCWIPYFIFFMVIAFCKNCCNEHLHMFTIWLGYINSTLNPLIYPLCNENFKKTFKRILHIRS

Compound	inhibition at 1 µM (histamine receptor H1)	inhibition at 1 µM [1, 2]	inhibition at 1 µM [1, 3]
Cc1ccc2c(c1)c1c(n2C(C)C(O)c2ccccc2)CCN(C)C1 (stereo not shown) [Compound No. 468, 2-(2,8-dimethyl-3,4-dihydro-1H-pyrido[4,3-b]indol-5(2H)-yl)-1-phenylpropan-1-ol]	82%	12%	–
C/C(=C\n1c2c(c3cc(C)ccc31)CN(C)CC2)c1cccc(S(C)(=O)=O)c1 [Compound No. 473, (E)-2,8-dimethyl-5-(2-(3-(methylsulfonyl)phenyl)prop-1-enyl)-2,3,4,5-tetrahydro-1H-pyrido[4,3-b]indole]	35%	59%	–
CN1CCc2c(c3cc(Cl)ccc3n2/C=C(/c2ccccc2)c2ccncc2)C1 [Compound No. 461, (Z)-8-chloro-2-methyl-5-(2-phenyl-2-(pyridin-4-yl)vinyl)-2,3,4,5-tetrahydro-1H-pyrido[4,3-b]indole]	31%	78%	–
CN1CCc2c(c3cc(Cl)ccc3n2/C=C/c2ccccc2)C1 [compound 415, (E)-8-chloro-2-methyl-5-styryl-2,3,4,5-tetrahydro-1H-pyrido[4,3-b]indole]	97%	95%	–
C/C(=C/n1c2c(c3cc(C)ccc31)CN(C)CC2)C1CCCCC1 [Compound 368, (Z)-5-(2-cyclohexylprop-1-enyl)-2,8-dimethyl-2,3,4,5-tetrahydro-1H-pyrido[4,3-b]indole]	82%	74%	–
C/C(=C\n1c2c(c3cc(C)ccc31)CNCC2)c1cc[n+](C)cc1 [Compound No. 471, (E)-1-methyl-4-(1-(8-methyl-3,4-dihydro-1H-pyrido[4,3-b]indol-5(2H)-yl)prop-1-en-2-yl)pyridinium]	2%	2%	–
C/C=C(\Cn1c2c(c3cc(Cl)ccc31)CN(C)CC2)c1ccncc1 [Compound No. 360, (Z)-8-chloro-2-methyl-5-(2-(pyridin-4-yl)but-2-enyl)-2,3,4,5-tetrahydro-1H-pyrido[4,3-b]indole]	47%	36%	–
C/C(=C/n1c2c(c3cc(Cl)ccc31)CN(C)CC2)c1ccc(F)cc1 [compound 397, (Z)-8-chloro-5-(2-(4-fluorophenyl)prop-1-enyl)-2-methyl-2,3,4,5-tetrahydro-1H-pyrido[4,3-b]indole]	89%	80%	–
Cc1ccc2c(c1)c1c(n2C#Cc2cccs2)CCN(C)C1 [Compound No. 493, 2,8-dimethyl-5-(thiophen-2-ylethynyl)-2,3,4,5-tetrahydro-1H-pyrido[4,3-b]indole]	69%	56%	–
C/C(=C(/C)n1c2c(c3cc(C)ccc31)CN(C)CC2)c1ccncc1 [compound 403, (E)-2,8-dimethyl-5-(3-(pyridin-4-yl)but-2-en-2-yl)-2,3,4,5-tetrahydro-1H-pyrido[4,3-b]indole]	37%	66%	–
C/C(=C\n1c2c(c3cc(NCCO)ccc31)CN(C)CC2)c1ccncc1 [compound 449, (E)-2-(2-methyl-5-(2-(pyridin-4-yl)prop-1-enyl)-2,3,4,5-tetrahydro-1H-pyrido[4,3-b]indol-8-ylamino)ethanol]	-7%	59%	–
C/C=C(/Cn1c2c(c3cc(Cl)ccc31)CN(C)CC2)c1ccncc1 [Compound No. 362, (E)-8-chloro-2-methyl-5-(2-(pyridin-4-yl)but-2-enyl)-2,3,4,5-tetrahydro-1H-pyrido[4,3-b]indole]	98%	79%	–
C/C(=C/n1c2c(c3cc(Cl)ccc31)CN(C)CC2)C1CCCCC1 [Compound 369, (Z)-8-chloro-5-(2-cyclohexylprop-1-enyl)-2-methyl-2,3,4,5-tetrahydro-1H-pyrido[4,3-b]indole]	29%	64%	–
C=CCN1CCc2c(c3cc(C)ccc3n2/C=C(\C)c2ccncc2)C1 [compound 405, (E)-2-allyl-8-methyl-5-(2-(pyridin-4-yl)prop-1-enyl)-2,3,4,5-tetrahydro-1H-pyrido[4,3-b]indole]	67%	88%	–
C/C(=C\n1c2c(c3cc(C)ccc31)C(C)N(C)C(C)C2)c1ccncc1 (stereo not shown) [Compound 285, (E)-1,2,3,8-tetramethyl-5-(2-(pyridin-4-yl)prop-1-enyl)-2,3,4,5-tetrahydro-1H-pyrido[4,3-b]indole]	21%	–	53%
C/C(=C\n1c2c(c3cc(C)ccc31)CN(C=O)CC2)c1ccncc1 [compound 411, (E)-8-methyl-5-(2-(pyridin-4-yl)prop-1-enyl)-3,4-dihydro-1H-pyrido[4,3-b]indole-2(5H)-carbaldehyde]	0%	55%	–

Compound	inhibition at 1 µM (histamine receptor H1)	inhibition at 1 µM [1, 2]	inhibition at 1 µM [1, 3]
COCCNc1ccc2c(c1)c1c(n2/C=C(\C)c2ccncc2)CCN(C)C1 [compound 440]	4%	16%	–
C/C(=C\n1c2c(c3cc(N(C)C)ccc31)CN(C)CC2)c1ccc(F)cc1 [compound 442, (E)-5-(2-(4-fluorophenyl)prop-1-enyl)-N,N,2-trimethyl-2,3,4,5-tetrahydro-1H-pyrido[4,3-b]indol-8-amine]	29%	77%	–
C/C(=C/n1c2c(c3cc(C)ccc31)CN(C)CC2)c1cccc(C(=O)N(C)C)c1 [Compound No. 458, (Z)-3-(1-(2,8-dimethyl-3,4-dihydro-1H-pyrido[4,3-b]indol-5(2H)-yl)prop-1-en-2-yl)-N,N-dimethylbenzamide]	56%	15%	–
Cc1ccc2c(c1)c1c(n2CC(C)(O)c2ccncc2)CC(C)N(C)C1 (stereo not shown) [Compound 345, 2-(pyridin-4-yl)-1-(2,3,8-trimethyl-3,4-dihydro-1H-pyrido[4,3-b]indol-5(2H)-yl)propan-2-ol]	56%	–	15%
CN1CCc2c(c3cc(Cl)ccc3n2/C=C(/c2ccncc2)C(C)(C)C)C1 [Compound No. 286, (E)-8-chloro-5-(3,3-dimethyl-2-(pyridin-4-yl)but-1-enyl)-2-methyl-2,3,4,5-tetrahydro-1H-pyrido[4,3-b]indole]	19%	–	23%
CCCCNc1ccc2c(c1)c1c(n2/C=C(\C)c2ccc(F)cc2)CCN(C)C1 [compound 432, (E)-N-butyl-5-(2-(4-fluorophenyl)prop-1-enyl)-2-methyl-2,3,4,5-tetrahydro-1H-pyrido[4,3-b]indol-8-amine]	46%	79%	–
C=C(Cn1c2c(c3cc(C)ccc31)CN(C)CC2)c1cnccn1 [Compound No. 364, 2,8-dimethyl-5-(2-(pyrazin-2-yl)allyl)-2,3,4,5-tetrahydro-1H-pyrido[4,3-b]indole]	95%	27%	–
C/C=C(/c1ccccc1)n1c2c(c3cc(C)ccc31)CN(C)CC2 [compound 408, (Z)-2,8-dimethyl-5-(1-phenylprop-1-enyl)-2,3,4,5-tetrahydro-1H-pyrido[4,3-b]indole]	98%	44%	–
C/C(=C\n1c2c(c3cc(NC4CC4)ccc31)CN(C)CC2)c1ccncc1 [compound 447, (E)-N-cyclopropyl-2-methyl-5-(2-(pyridin-4-yl)prop-1-enyl)-2,3,4,5-tetrahydro-1H-pyrido[4,3-b]indol-8-amine]	-1%	59%	–
Cc1ccc2c(c1)c1c(n2/C(=C(/F)c2ccncc2)c2ccncc2)CCN(C)C1 [compound 425, (E)-5-(2-fluoro-1,2-di(pyridin-4-yl)vinyl)-2,8-dimethyl-2,3,4,5-tetrahydro-1H-pyrido[4,3-b]indole]	4%	6%	–
C/C(=C/n1c2c(c3cc(Cl)ccc31)CN(C)CC2)c1ccncc1 [compound 384, (Z)-8-chloro-2-methyl-5-(2-(pyridin-4-yl)prop-1-enyl)-2,3,4,5-tetrahydro-1H-pyrido[4,3-b]indole]	66%	91%	–
C/C(=C\n1c2c(c3cc(Cl)ccc31)CN(CCCC1(c3ccc(F)cc3)OCCO1)CC2)c1ccncc1 [compound 398, (E)-8-chloro-2-(3-(2-(4-fluorophenyl)-1,3-dioxolan-2-yl)propyl)-5-(2-(pyridin-4-yl)prop-1-enyl)-2,3,4,5-tetrahydro-1H-pyrido[4,3-b]indole]	95%	97%	–
C/C(=C\n1c2c(c3cc(Cl)ccc31)CN(C)[C@H](C)C2)c1ccncc1 [compound 392, (R,E)-8-chloro-2,3-dimethyl-5-(2-(pyridin-4-yl)prop-1-enyl)-2,3,4,5-tetrahydro-1H-pyrido[4,3-b]indole]	84%	99%	–
C/C(=C\n1c2c(c3cc(Cl)ccc31)CN(C)CC2)c1cc(C)nc(C)c1 [compound 393, (E)-8-chloro-5-(2-(2,6-dimethylpyridin-4-yl)prop-1-enyl)-2-methyl-2,3,4,5-tetrahydro-1H-pyrido[4,3-b]indole]	69%	99%	–
C/C(=C\n1c2c(c3cc(C)ccc31)CN(C)CC2)c1cc(Cl)cc(Cl)c1 [compound 410, (E)-5-(2-(3,5-dichlorophenyl)prop-1-enyl)-2,8-dimethyl-2,3,4,5-tetrahydro-1H-pyrido[4,3-b]indole]	–	47%	–
